Patent publication US8436185B2, “Pharmaceutically acceptable salts of 2-{4-[(3S)-piperidin-3-yl]phenyl}-2H-indazole-7-carboxamide” (Merck Sharp & Dohme Corp., priority 2008, dated 2013)

What was measured:
PARP = details: rabbits, cited from earlier work
[1] = for Hygroscopicity (at 25° C.): in words

SMILES | reduction in infarct size (PARP; single injection 1 mg/kg) | reduction in infarct size in the heart (PARP; single injection 10 mg/kg, one minute before occlusion or before reperfusion) | moisture to 50% RH ([1]; 25° C., to 50% RH) [%] | moisture adsorbed to 95% RH ([1]; 25° C.) | Hygroscopicity (at 25° C.) [1]
Oc1cccc2c(O)nccc12 [1,5-dihydroxyisoquinoline] | 38-48% |  |  |  | 
NC(=O)c1cccc(N)c1 [3-amino-benzamide] |  | 32-42% |  |  | 
Cl.NC(=O)c1cccc2cn(-c3ccc([C@@H]4CCCNC4)cc3)nc12 [Chloride salt, (3S)-3-[4-[7-(Aminocarbonyl)-2H-indazol-2-yl]phenyl]piperidinium chloride] |  |  | 10 | 60% moisture to 95% RH) | Highly hygroscopic
Cc1ccc(S(=O)(=O)O)cc1.NC(=O)c1cccc2cn(-c3ccc([C@@H]4CCCNC4)cc3)nc12 [Example 1, (3S)-3-{4-[7-(Aminocarbonyl)-2H-indazol-2-yl]phenyl}piperidinium 4-methylbenzenesulfonate] |  |  |  | 0.3% | Non-hygroscopic
